From US8563542B2 (Cyclacel Limited, priority 2007, dated 2013)
pIC50: −log10 of the molar value.

Biological target: PLK1 (Homo sapiens, UniProt P53350)
Assay: PLK1 protein kinase assay (CDC25C phosphorylation, [γ-32P]-ATP)
Format: biochemical
Details: Table 2, PLK1 IC50; class symbols; read-out: PLK1 IC50

Sequence of PLK1 (P53350 whole entry): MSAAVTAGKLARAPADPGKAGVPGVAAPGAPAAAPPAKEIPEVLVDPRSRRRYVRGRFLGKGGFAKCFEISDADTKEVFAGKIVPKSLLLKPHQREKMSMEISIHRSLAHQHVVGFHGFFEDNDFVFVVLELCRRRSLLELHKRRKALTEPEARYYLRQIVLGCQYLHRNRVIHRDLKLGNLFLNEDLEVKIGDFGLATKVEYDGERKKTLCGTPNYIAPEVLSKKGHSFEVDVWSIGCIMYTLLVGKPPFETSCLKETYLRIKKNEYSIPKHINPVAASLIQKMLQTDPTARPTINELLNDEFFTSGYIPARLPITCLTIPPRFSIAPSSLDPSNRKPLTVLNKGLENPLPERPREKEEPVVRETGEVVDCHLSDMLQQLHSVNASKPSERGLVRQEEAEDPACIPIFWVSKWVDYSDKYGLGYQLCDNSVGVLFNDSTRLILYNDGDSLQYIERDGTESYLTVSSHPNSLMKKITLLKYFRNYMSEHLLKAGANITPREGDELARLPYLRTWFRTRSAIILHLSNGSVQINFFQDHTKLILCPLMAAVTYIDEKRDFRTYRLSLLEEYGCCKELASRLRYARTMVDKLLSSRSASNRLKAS

Row | SMILES | pIC50
1 | COc1ccc(C(=O)NC(C)(C)CN2CCCCC2)cc1Nc1ncc2c(n1)N(C1CCCC1)CCC(=O)N2C [compound 234, 3-(9-Cyclopentyl-5-methyl-6-oxo-6,7,8,9-tetrahydro-5H-pyrimido[4,5-b][1,4]diazepin-2-ylamino)-N-(1,1-dimethyl-2-piperidin-1-yl-ethyl)-4-methoxy-benzamide] | > 5.00
2 | COc1cc(C(=O)NC2CCN(Cc3ccccc3)CC2)ccc1Nc1ncc2c(n1)N(CC1CC1)CCC(=O)N2C [compound 241, N-(1-Benzyl-piperidin-4-yl)-4-(9-cyclopropylmethyl-5-methyl-6-oxo-6,7,8,9-tetrahydro-5H-pyrimido[4,5-b][1,4]diazepin-2-ylamino)-3-methoxy-benzamide] | > 6.00
3 | COc1cc(C(=O)NCC2CCN(C)CC2)ccc1Nc1ncc2c(n1)N(CC1CC1)CCC(=O)N2C [compound 242, 4-(9-Cyclopropylmethyl-5-methyl-6-oxo-6,7,8,9-tetrahydro-5H-pyrimido[4,5-b][1,4]diazepin-2-ylamino)-3-methoxy-N-(1-methyl-piperidin-4-ylmethyl)-benzamide] | > 6.00
4 | COc1cc(C(=O)NC2CN3CCC2CC3)ccc1Nc1ncc2c(n1)N(CC1CC1)CCC(=O)N2C (stereo not drawn) [compound 243, N-(1-Aza-bicyclo[2.2.2]oct-3-yl)-4-(9-cyclopropylmethyl-5-methyl-6-oxo-6,7,8,9-tetrahydro-5H-pyrimido[4,5-b][1,4]diazepin-2-ylamino)-3-methoxy-benzamide] | > 6.00
5 | COc1cc(C(=O)NC2CC(C)(C)N(C)C(C)(C)C2)ccc1Nc1ncc2c(n1)N(CC1CC1)CCC(=O)N2C [compound 244, 4-(9-Cyclopropylmethyl-5-methyl-6-oxo-6,7,8,9-tetrahydro-5H-pyrimido[4,5-b][1,4]diazepin-2-ylamino)-3-methoxy-N-(1,2,2,6,6-pentamethyl-piperidin-4-yl)-benzamide] | > 6.00
6 | COc1cc(C(=O)NC2CCCN(C)C2)ccc1Nc1ncc2c(n1)N(CC1CC1)CCC(=O)N2C (stereo not drawn) [compound 245, 4-(9-Cyclopropylmethyl-5-methyl-6-oxo-6,7,8,9-tetrahydro-5H-pyrimido[4,5-b][1,4]diazepin-2-ylamino)-3-methoxy-N-(1-methyl-piperidin-3-yl)-benzamide] | > 6.00
7 | COc1cc(C(=O)NCC(C)(C)CN(C)C)ccc1Nc1ncc2c(n1)N(CC1CC1)CCC(=O)N2C [compound 246, 4-(9-Cyclopropylmethyl-5-methyl-6-oxo-6,7,8,9-tetrahydro-5H-pyrimido[4,5-b][1,4]diazepin-2-ylamino)-N-(3-dimethylamino-2,2-dimethyl-propyl)-3-methoxy-benzamide] | > 6.00
8 | COc1cc(C(=O)NCCCN(C)C)ccc1Nc1ncc2c(n1)N(CC1CC1)CCC(=O)N2C [compound 247, 4-(9-Cyclopropylmethyl-5-methyl-6-oxo-6,7,8,9-tetrahydro-5H-pyrimido[4,5-b][1,4]diazepin-2-ylamino)-N-(3-dimethylamino-propyl)-3-methoxy-benzamide] | > 6.00
9 | COc1cc(C(=O)NC2CCCC2)ccc1Nc1ncc2c(n1)N(CC1CC1)CCC(=O)N2C [compound 248, N-Cyclopentyl-4-(9-cyclopropylmethyl-5-methyl-6-oxo-6,7,8,9-tetrahydro-5H-pyrimido[4,5-b][1,4]diazepin-2-ylamino)-3-methoxy-benzamide] | > 6.00
10 | COc1cc(C(=O)NCc2cccn2C)ccc1Nc1ncc2c(n1)N(CC1CC1)CCC(=O)N2C [compound 249, 4-(9-Cyclopropylmethyl-5-methyl-6-oxo-6,7,8,9-tetrahydro-5H-pyrimido[4,5-b][1,4]diazepin-2-ylamino)-3-methoxy-N-(1-methyl-1H-pyrrol-2-ylmethyl)-benzamide] | > 6.00
11 | COc1cc(C(=O)NC(C)(C)CN2CCCC2)ccc1Nc1ncc2c(n1)N(C1CCCC1)CC1(CC1)C(=O)N2C [compound 250, 4-(9-Cyclopentyl-5-methyl-6-oxo-6,7,8,9-tetrahydro-5H-pyrimido[4,5-b][1,4]diazepin-3,1′-cyclopropane-2-ylamino)-N-(1,1-dimethyl-2-pyrrolidin-1-yl-ethyl)-3-methoxy-benzamide] | > 6.00
12 | COc1cc(C(=O)NC(C)(C)CN2CCCCC2)ccc1Nc1ncc2c(n1)N(C1CCCC1)CC1(CC1)C(=O)N2C [compound 251, 4-(9-Cyclopentyl-5-methyl-6-oxo-6,7,8,9-tetrahydro-5H-pyrimido[4,5-b][1,4]diazepin-3,1′-cyclopropane-2-ylamino)-N-(1,1-dimethyl-2-piperidin-1-yl-ethyl)-3-methoxy-benzamide] | > 6.00
13 | COc1cc(C(=O)NC2CCN(Cc3ccccc3)CC2)ccc1Nc1ncc2c(n1)N(C1CCCC1)CC1(CC1)C(=O)N2C [compound 252, 4-(9-Cyclopentyl-5-methyl-6-oxo-6,7,8,9-tetrahydro-5H-spiro[pyrimido[4,5-b][1,4]diazepin-3,1′-cyclopropane]-2-ylamino)-3-methoxy-N-(1-benzylpiperidin-4-yl)-benzamide] | > 6.00

The remaining lines, values ahead:

Row | pIC50 | SMILES
14 | > 6.00 | COc1cc(C(=O)NC2CCN(C)CC2)ccc1Nc1ncc2c(n1)N(CCC(=O)N(C)C)CCC(=O)N2C [compound 225, 4-[9-(2-Dimethylcarbamoyl-ethyl)-5-methyl-6-oxo-6,7,8,9-tetrahydro-5H-pyrimido[4,5-b][1,4]diazepin-2-ylamino]-3-methoxy-N-(1-methyl-piperidin-4-yl)-benzamide]
15 | > 6.00 | COc1cc(C(=O)NC2CCN(C)CC2)ccc1Nc1ncc2c(n1)N(CCC(=O)NCCCN(C)C)CCC(=O)N2C [compound 226, 4-{9-[2-(3-Dimethylamino-propylcarbamoyl)-ethyl]-5-methyl-6-oxo-6,7,8,9-tetrahydro-5H-pyrimido[4,5-b][1,4]diazepin-2-ylamino}-3-methoxy-N-(1-methyl-piperidin-4-yl)-benzamide]
16 | > 7.00 | CN1CCC(NC(=O)c2ccc(Nc3ncc4c(n3)N(C3CCCC3)CCC(=O)N4C)c(O)c2)CC1 [compound 228, 4-(9-Cyclopentyl-5-methyl-6-oxo-6,7,8,9-tetrahydro-5H-pyrimido[4,5-b][1,4]diazepin-2-ylamino)-3-hydroxy-N-(1-methyl-piperidin-4-yl)-benzamide]
17 | > 6.00 | CCc1cc(C(=O)O)ccc1Nc1ncc2c(n1)N(C1CCCC1)CC1(CC1)C(=O)N2C [compound 229, 4-(9-Cyclopentyl-5-methyl-6-oxo-6,7,8,9-tetrahydro-5H-pyrimido[4,5-b][1,4]diazepin-3,1′-cyclopropane-2-ylamino)-acid]
18 | > 6.00 | COc1cc(C(=O)O)ccc1Nc1ncc2c(n1)N(CC1CC1)CC1(CC1)C(=O)N2C [compound 230, 4-(9-Cyclopropylmethyl-5-methyl-6-oxo-6,7,8,9-tetrahydro-5H-pyrimido[4,5-b][1,4]diazepin-3,1′-cyclopropane-2-ylamino)-3-methoxy-benzoic acid]
19 | > 6.00 | CCN(CC)CCNC(=O)c1ccc(OC)c(Nc2ncc3c(n2)N(C2CCCC2)CCC(=O)N3C)c1 [compound 231, 3-(9-Cyclopentyl-5-methyl-6-oxo-6,7,8,9-tetrahydro-5H-pyrimido[4,5-b][1,4]diazepin-2-ylamino)-N-(2-diethylamino-ethyl)-4-methoxy-benzamide]
20 | > 6.00 | COc1ccc(C(=O)NCCCN(C)C)cc1Nc1ncc2c(n1)N(C1CCCC1)CCC(=O)N2C [compound 232, 3-(9-Cyclopentyl-5-methyl-6-oxo-6,7,8,9-tetrahydro-5H-pyrimido[4,5-b][1,4]diazepin-2-ylamino)-N-(3-dimethylamino-propyl)-4-methoxy-benzamide]
21 | > 6.00 | COc1ccc(C(=O)NCCCO)cc1Nc1ncc2c(n1)N(C1CCCC1)CCC(=O)N2C [compound 233, 3-(9-Cyclopentyl-5-methyl-6-oxo-6,7,8,9-tetrahydro-5H-pyrimido[4,5-b][1,4]diazepin-2-ylamino)-N-(3-hydroxy-propyl)-4-methoxy-benzamide]
22 | > 6.00 | COc1ccc(C(=O)NCC2CCN(C)CC2)cc1Nc1ncc2c(n1)N(C1CCCC1)CCC(=O)N2C [compound 235, 3-(9-Cyclopentyl-5-methyl-6-oxo-6,7,8,9-tetrahydro-5H-pyrimido[4,5-b][1,4]diazepin-2-ylamino)-4-methoxy-N-(1-methyl-piperidin-4-ylmethyl)-benzamide]
23 | > 7.00 | CCN1CCC(NC(=O)c2ccc(Nc3ncc4c(n3)N(C3CCCC3)CCC(=O)N4C)c(OC)c2)CC1 [compound 237, 4-(9-Cyclopentyl-5-methyl-6-oxo-6,7,8,9-tetrahydro-5H-pyrimido[4,5-b][1,4]diazepin-2-ylamino)-N-(1-ethyl-piperidin-4-yl)-3-methoxy-benzamide]
24 | > 7.00 | COc1cc(C(=O)NC2CCN(CC3CC3)CC2)ccc1Nc1ncc2c(n1)N(C1CCCC1)CCC(=O)N2C [compound 238, 4-(9-Cyclopentyl-5-methyl-6-oxo-6,7,8,9-tetrahydro-5H-pyrimido[4,5-b][1,4]diazepin-2-ylamino)-N-(1-cyclopropylmethyl-piperidin-4-yl)-3-methoxy-benzamide]
25 | > 6.00 | COc1cc(C(=O)O)ccc1Nc1ncc2c(n1)N(C1CCCC1)CC1(CC1)C(=O)N2C [compound 239, 4-(9-Cyclopentyl-5-methyl-6-oxo-6,7,8,9-tetrahydro-5H-pyrimido[4,5-b][1,4]diazepin-3,1′-cyclopropane-2-ylamino)-3-methoxy-benzoic acid]
26 | > 7.00 | COc1cc(C(=O)NCC2CCN(C)CC2)ccc1Nc1ncc2c(n1)N(C1CCCC1)CC1(CC1)C(=O)N2C [compound 253, 4-(9-Cyclopentyl-5-methyl-6-oxo-6,7,8,9-tetrahydro-5H-pyrimido[4,5-b][1,4]diazepin-3,1′-cyclopropane-2-ylamino)-3-methoxy-N-(1-methyl-piperidin-4-ylmethyl)-benzamide]
27 | > 7.00 | COc1cc(C(=O)NC2CC(C)(C)N(C)C(C)(C)C2)ccc1Nc1ncc2c(n1)N(C1CCCC1)CC1(CC1)C(=O)N2C [compound 255, 4-(9-Cyclopentyl-5-methyl-6-oxo-6,7,8,9-tetrahydro-5H-spiro[pyrimido[4,5-b][1,4]diazepin-3,1′-cyclopropane]-2-ylamino)-3-methoxy-N-(1,2,2,6,6-pentamethyl-piperidin-4-yl)-benzamide]
